Test results taken from patent US4677100A, “Cephalosporin derivatives” (Banyu Pharmaceutical Co., Ltd., priority 1984, dated 1987).
≈ marks a conversion by molar mass, not a printed value.

What was measured:
[1] = tested on: A. calcoaceticus No. 14; assay: MIC, agar plate dilution method; assay type: cell-based; settings: Acinetobacter calcoaceticus; for MIC: A. calcoaceticus No. 14, 10^6 CFU/ml, Sensitivity Disk Agar, read-out: Minimum Inhibitory Concentration
Description: (§1) The minimum inhibitory concentrations (MIC: μg/ml) of the compounds of the present invention against various microorganisms were measured by an agar plate dilution method (inoculum size: 10^6 CFU/ml) by using Sensitivity Disk Agar (Nissui) in comparison with Cefotaxime and Ceftazidime as comparative compounds.

[2] = tested on: C. freundii No. 7; assay: MIC, agar plate dilution method; assay type: cell-based; settings: Citrobacter freundii; C. freundii No. 7; 10^6 CFU/ml; Sensitivity Disk Agar; read-out: Minimum Inhibitory Concentration
Description: as §1

[3] = tested on: E. cloaceae Nek 39; assay: MIC, agar plate dilution method; assay type: cell-based; settings: E. cloaceae Nek 39; 10^6 CFU/ml; Sensitivity Disk Agar; read-out: Minimum Inhibitory Concentration
Description: as §1

[4] = tested on: E. coli C/Rms149; assay: MIC, agar plate dilution method; assay type: cell-based; settings: Escherichia coli, read-out: Minimum Inhibitory Concentration
Description: as §1

[5] = tested on: E. coli CSH2; assay: MIC, agar plate dilution method; assay type: cell-based; settings: Escherichia coli, 10^6 CFU/ml, Sensitivity Disk Agar, read-out: Minimum Inhibitory Concentration
Description: as §1

[6] = tested on: E. coli CSH; assay: MIC, agar plate dilution method; assay type: cell-based; settings: Escherichia coli, read-out: Minimum Inhibitory Concentration
Description: as §1

[7] = tested on: E. coli ML1410/Rte16; assay: MIC, agar plate dilution method; assay type: cell-based; settings: Escherichia coli, ML1410/RTE16, read-out: Minimum Inhibitory Concentration
Description: as §1

[8] = tested on: E. coli NIHJJC-2; assay: MIC, agar plate dilution method; assay type: cell-based; settings: Escherichia coli, NIHJJC2; E. coli NIHJJC-2; 10^6 CFU/ml; Sensitivity Disk Agar; read-out: Minimum Inhibitory Concentration
Description: as §1

[9] = tested on: E. coli W3630/Rms212; assay: MIC, agar plate dilution method; assay type: cell-based; settings: Escherichia coli, W3630/RMS212, read-out: Minimum Inhibitory Concentration
Description: as §1

[10] = tested on: E. coli W3630/Rms213; assay: MIC, agar plate dilution method; assay type: cell-based; settings: Escherichia coli, W3630/RMS213, read-out: Minimum Inhibitory Concentration
Description: as §1

[11] = tested on: K. pneumoniae No. 42; assay: MIC, agar plate dilution method; assay type: cell-based; settings: Klebsiella pneumoniae; K. pneumoniae No. 42; 10^6 CFU/ml; Sensitivity Disk Agar; read-out: Minimum Inhibitory Concentration
Description: as §1

[12] = tested on: P. mirabilis JY10; assay: MIC, agar plate dilution method; assay type: cell-based; settings: Proteus mirabilis; P. mirabilis JY10; 10^6 CFU/ml; Sensitivity Disk Agar; read-out: Minimum Inhibitory Concentration
Description: as §1

[13] = tested on: P. vulgaris No. 33; assay: MIC, agar plate dilution method; assay type: cell-based; settings: Proteus vulgaris; P. vulgaris No. 33; 10^6 CFU/ml; Sensitivity Disk Agar; read-out: Minimum Inhibitory Concentration
Description: as §1

[14] = tested on: P. vulgaris OB1043; assay: MIC, agar plate dilution method; assay type: cell-based; settings: Proteus vulgaris; P. vulgaris OB1043; 10^6 CFU/ml; Sensitivity Disk Agar; read-out: Minimum Inhibitory Concentration
Description: as §1

[15] = tested on: S. aureus JS-1; assay: MIC, agar plate dilution method; assay type: cell-based; settings: Staphylococcus aureus, JS1; S. aureus JS-1; 10^6 CFU/ml; Sensitivity Disk Agar; read-out: Minimum Inhibitory Concentration
Description: as §1

[16] = tested on: S. aureus NIHJJC-1; assay: MIC, agar plate dilution method; assay type: cell-based; settings: Staphylococcus aureus, NIHJJC1; S. aureus NIHJJC-1; 10^6 CFU/ml; Sensitivity Disk Agar; read-out: Minimum Inhibitory Concentration
Description: as §1

[17] = tested on: S. marcescens No. 16-2; assay: MIC, agar plate dilution method; assay type: cell-based; settings: Serratia marcescens, NO.162; S. marcescens No. 16-2; 10^6 CFU/ml; Sensitivity Disk Agar; read-out: Minimum Inhibitory Concentration
Description: as §1

[18] = tested on: P. aeruginosa AK109; assay: MIC, agar plate dilution method; assay type: cell-based, Pseudomonas aeruginosa; settings: for antibacterial activity relative to the compound of Reference Example: Pseudomonas aeruginosa AK109; for MIC: Pseudomonas aeruginosa, P. aeruginosa AK109, 10^6 CFU/ml, Sensitivity Disk Agar, read-out: Minimum Inhibitory Concentration
Description: as §1

[19] = tested on: P. aeruginosa AKR17; assay: MIC, agar plate dilution method; assay type: cell-based, Pseudomonas aeruginosa; settings: for antibacterial activity relative to the compound of Reference Example: Pseudomonas aeruginosa AKR-17, resistant to all cephalosporins including Ceftazidime; for MIC: Pseudomonas aeruginosa, P. aeruginosa AKR17, 10^6 CFU/ml, Sensitivity Disk Agar, read-out: Minimum Inhibitory Concentration
Description: as §1

[20] = tested on: P. cepacia 23; assay: MIC, agar plate dilution method; assay type: cell-based, Pseudomonas cepacia; settings: for MIC: Burkholderia cepacia, P. cepacia 23, 10^6 CFU/ml, Sensitivity Disk Agar, read-out: Minimum Inhibitory Concentration; for antibacterial activity relative to the compound of Reference Example: Pseudomonas cepacia 23
Description: as §1

[21] = tested on: P. maltophilia IID 1275; assay: MIC, agar plate dilution method; assay type: cell-based, Pseudomonas maltophilia; settings: for MIC: Stenotrophomonas maltophilia, IID1275, P. maltophilia IID 1275, 10^6 CFU/ml, Sensitivity Disk Agar, read-out: Minimum Inhibitory Concentration
Description: as §1

[22] = tested on: Gram-positive bacteria and Gram-negative bacteria; assay: antibacterial activity, general statement; assay type: cell-based; settings: sensitive and resistant bacteria
Description: as §1

SMILES | MIC [1] | MIC [2] | MIC [3] | MIC [4] | MIC [5] | MIC [6] | MIC [7] | MIC [8] | MIC [9] | MIC [10] | MIC [11] | MIC [12] | MIC [13] | MIC [14] | MIC [15] | MIC [16] | MIC [17] | MIC [18] | MIC [19] | MIC [20] | other results
C[N+]1(CC2=C(C(=O)[O-])N3C(=O)C(NC(=O)C(=NOC4(C(=O)O)CC4)c4csc(N)n4)C3SC2)Cc2cc(O)c(O)cc2C1 (centres unmarked) [Ex. 10-E, 7-[(Z)-2-(2-aminothiazol-4-yl)-2-(1-carboxy-1-cyclopropoxyimino)acetamido]-3-(5,6-dihydroxy-2-methyl-2-isoindolinium)methyl-3-cephem-4-carboxylate] | 0.2 µg/mL (≈ 0.317 µM) | 1.56 µg/mL (≈ 2.47 µM) | ≤ 0.05 µg/mL | ≤ 0.05 µg/mL | ≤ 0.05 µg/mL | ≤ 0.05 µg/mL | ≤ 0.05 µg/mL | ≤ 0.05 µg/mL | ≤ 0.05 µg/mL | ≤ 0.05 µg/mL | 0.1 µg/mL (≈ 0.159 µM) | ≤ 0.05 µg/mL | ≤ 0.05 µg/mL | ≤ 0.05 µg/mL | > 25 µg/mL | 25 µg/mL (≈ 39.6 µM) | 0.39 µg/mL (≈ 0.618 µM) | ≤ 0.05 µg/mL | 0.1 µg/mL (≈ 0.159 µM) | ≤ 0.05 µg/mL | antibacterial activity relative to the compound of Reference Example [1]: at least 32 times; antibacterial activity relative to the compound of Reference Example [18]: at least 16 times; antibacterial activity relative to the compound of Reference Example [19]: at least 32 times; antibacterial activity relative to the compound of Reference Example [20]: at least 32 times; antibacterial activity relative to the compound of Reference Example ([21]; Pseudomonas maltophilia resistant to all cephalosporins): at least twice as strong; MIC [21]: 3.12 µg/mL (≈ 4.95 µM); antibacterial activity (in words) [22]: particularly strong antibacterial activities
CCON=C(C(=O)NC1C(=O)N2C(C(=O)[O-])=C(C[N+]3(C)Cc4cc(O)c(O)cc4C3)CSC12)c1csc(N)n1 (centres unmarked) [Ex. 5-D, 7-[(Z)-2-(2-aminothiazol-4-yl)-2-ethoxyiminoacetamido]-3-(5,6-dihydroxy-2-methyl-2-isoindolinium) methyl-3-cephem-4-carboxylate] | 0.2 µg/mL (≈ 0.348 µM) | 6.25 µg/mL (≈ 10.9 µM) | ≤ 0.05 µg/mL | 0.1 µg/mL (≈ 0.174 µM) | 0.1 µg/mL (≈ 0.174 µM) | 0.2 µg/mL (≈ 0.348 µM) | 0.1 µg/mL (≈ 0.174 µM) | ≤ 0.05 µg/mL | ≤ 0.05 µg/mL | 0.2 µg/mL (≈ 0.348 µM) | 0.1 µg/mL (≈ 0.174 µM) | 0.2 µg/mL (≈ 0.348 µM) | 0.2 µg/mL (≈ 0.348 µM) | 0.78 µg/mL (≈ 1.36 µM) | 12.5 µg/mL (≈ 21.8 µM) | 3.12 µg/mL (≈ 5.43 µM) | 3.12 µg/mL (≈ 5.43 µM) | 0.1 µg/mL (≈ 0.174 µM) | 0.39 µg/mL (≈ 0.679 µM) | 0.1 µg/mL (≈ 0.174 µM) | antibacterial activity relative to the compound of Reference Example [1]: at least 32 times; antibacterial activity relative to the compound of Reference Example [18]: at least 16 times; antibacterial activity relative to the compound of Reference Example [19]: at least 32 times; antibacterial activity relative to the compound of Reference Example [20]: at least 32 times; MIC [21]: 25 µg/mL (≈ 43.5 µM); antibacterial activity (in words) [22]: particularly strong antibacterial activities
CO/N=C(\C(=O)NC1C(=O)N2C(C(=O)[O-])=C(C[N+]3(C)Cc4ccccc4C3)CSC12)c1csc(N)n1 (centres unmarked) [Reference Ex., 7-[(Z)-2-(2-aminothiazol-4-yl)-2-methoxyiminoacetamido]-3-(2-methyl-2-isoindolinium)methyl-3-cephem-4-carboxylate, reference compound] | 25 µg/mL (≈ 47.3 µM) | 1.56 µg/mL (≈ 2.95 µM) | 0.78 µg/mL (≈ 1.48 µM) | 0.1 µg/mL (≈ 0.189 µM) | ≤ 0.05 µg/mL | 0.39 µg/mL (≈ 0.738 µM) | 0.05 µg/mL (≈ 0.0946 µM) | ≤ 0.05 µg/mL | 0.2 µg/mL (≈ 0.378 µM) | 0.78 µg/mL (≈ 1.48 µM) | 0.2 µg/mL (≈ 0.378 µM) | 0.39 µg/mL (≈ 0.738 µM) | 0.2 µg/mL (≈ 0.378 µM) | 0.78 µg/mL (≈ 1.48 µM) | 3.12 µg/mL (≈ 5.9 µM) | 0.39 µg/mL (≈ 0.738 µM) | 12.5 µg/mL (≈ 23.6 µM) | 3.12 µg/mL (≈ 5.9 µM) | > 25 µg/mL | 12.5 µg/mL (≈ 23.6 µM) | MIC [21]: > 25 µg/mL
